Nc1cccnc1
solubility (mole fraction) (in acetone, 288.15 K): 0.155 | solubility (mole fraction) (in acetone, 293.15 K): 0.194 | solubility (mole fraction) (in acetone, 298.15 K): 0.244 | solubility (mole fraction) (in acetone, 303.15 K): 0.305 | solubility (mole fraction) (in acetone, 308.15 K): 0.38 | solubility (mole fraction) (in acetone, 313.15 K): 0.468 | solubility (mole fraction) (in acetone, 318.15 K): 0.565 | solubility (mole fraction) (in acetone, 323.15 K): 0.668 | solubility (mole fraction) (in n-butyl acetate, 288.15 K): 0.432 | solubility (mole fraction) (in n-butyl acetate, 293.15 K): 0.481 | solubility (mole fraction) (in n-butyl acetate, 298.15 K): 0.537 | solubility (mole fraction) (in n-butyl acetate, 303.15 K): 0.591 | solubility (mole fraction) (in n-butyl acetate, 308.15 K): 0.65 | solubility (mole fraction) (in n-butyl acetate, 313.15 K): 0.712 | solubility (mole fraction) (in n-butyl acetate, 318.15 K): 0.77 | solubility (mole fraction) (in n-butyl acetate, 323.15 K): 0.835

From BigSolDB 2.1
